In ChEMBL document CHEMBL1201862, “PubChem BioAssay data set” (2004):
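Method: 48-hour compound exposure of cells in 96-well plates, five concentrations, linear interpolation of endpoints. Abbreviation: GI50, concentration required for 50% inhibition of growth.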 Active and inactive are the calls of the source. Rule as the data show it: active = GI50 up to about 1.1 µM and inactive = higher.

Key:
Experiment in all cases: inhibition of tumour cell growth, NCI panel, 48 h
NCI-H226 = tested on: NCI-H226
SK-OV-3 = tested on: SK-OV-3
SF-295 = tested on: SF-295
NCI-H522 = tested on: NCI-H522
SK-MEL-2 = tested on: SK-MEL-2
A498 = tested on: A498
MDA-MB-435 = tested on: MDA-MB-435
COLO 205 = tested on: COLO 205
SF-268 = tested on: SF-268
NCI/ADR-RES = tested on: NCI/ADR-RES
UACC-62 = tested on: UACC-62
T47D = tested on: T47D
HOP-92 = tested on: HOP-92
IGROV-1 = tested on: IGROV-1
UACC-257 = tested on: UACC-257
SK-MEL-28 = tested on: SK-MEL-28
CAKI-1 = tested on: CAKI-1
HT-29 = tested on: HT-29
OVCAR-8 = tested on: OVCAR-8
HCT-116 = tested on: HCT-116

Measured: GI50

CC1=NN(c2ccccc2)C(=O)/C1=C1\SC(c2ccccc2)(c2ccccc2)c2ccccc21
inactive: NCI-H226 > 100 µM | SK-OV-3 > 100 µM | SF-295 > 100 µM | NCI-H522 > 100 µM | SK-MEL-2 > 100 µM | A498 > 100 µM | MDA-MB-435 > 100 µM | COLO 205 > 100 µM | SF-268 > 100 µM | NCI/ADR-RES > 100 µM | UACC-62 > 100 µM | T47D > 100 µM | HOP-92 > 100 µM | IGROV-1 > 100 µM | UACC-257 > 100 µM | SK-MEL-28 > 100 µM | CAKI-1 > 100 µM | HT-29 67.9 µM | OVCAR-8 > 100 µM | HCT-116 50.4 µM

O=[N+]([O-])/C(Cl)=C(\Nc1ccccc1)C(Cl)=C(Cl)Cl
inactive: NCI-H226 26.5 µM | SK-OV-3 43.7 µM | SF-295 33 µM | NCI-H522 42.7 µM | SK-MEL-2 28.8 µM | A498 30.8 µM | MDA-MB-435 18.5 µM | COLO 205 19.5 µM | SF-268 32.1 µM | NCI/ADR-RES 16 µM | UACC-62 26.2 µM | T47D 29.1 µM | HOP-92 28.9 µM | IGROV-1 32.4 µM | UACC-257 49.8 µM | SK-MEL-28 36.8 µM | CAKI-1 48.3 µM | HT-29 30.5 µM | OVCAR-8 23.5 µM | HCT-116 36.1 µM

COC(=O)[C@H](Cc1ccccc1)NC(=O)c1ccc(CNC(=O)/C=C/c2csc(-c3ccccc3)n2)cc1
inactive: NCI-H226 46 µM | SK-OV-3 23.7 µM | SF-295 7.28 µM | NCI-H522 3.24 µM | SK-MEL-2 2.81 µM | A498 16.1 µM | MDA-MB-435 2.83 µM | COLO 205 7.13 µM | SF-268 7.6 µM | NCI/ADR-RES 21.2 µM | UACC-62 14.6 µM | T47D 2.72 µM | HOP-92 3.88 µM | IGROV-1 3.46 µM | UACC-257 1.93 µM | SK-MEL-28 3.18 µM | CAKI-1 7.82 µM | HT-29 7.38 µM | OVCAR-8 11.1 µM | HCT-116 5.04 µM

Nc1ncnc2c1ncc(=O)n2C1CC(O)C(CO)O1 (stereo not given)
inactive: NCI-H226 > 100 µM | SK-OV-3 > 100 µM | SF-295 65.6 µM | NCI-H522 > 100 µM | SK-MEL-2 > 100 µM | A498 > 100 µM | MDA-MB-435 > 100 µM | COLO 205 > 100 µM | SF-268 > 100 µM | NCI/ADR-RES > 100 µM | UACC-62 > 100 µM | T47D > 100 µM | HOP-92 > 100 µM | IGROV-1 > 100 µM | UACC-257 > 100 µM | SK-MEL-28 > 100 µM | CAKI-1 > 100 µM | HT-29 > 100 µM | OVCAR-8 > 100 µM | HCT-116 > 100 µM

N#C[BH2-][n+]1ccc(C(=O)NNCC(F)(F)F)cc1
inactive: NCI-H226 > 100 µM | SK-OV-3 > 100 µM | SF-295 > 100 µM | NCI-H522 > 100 µM | SK-MEL-2 > 100 µM | A498 > 100 µM | MDA-MB-435 > 100 µM | COLO 205 > 100 µM | SF-268 > 100 µM | NCI/ADR-RES > 100 µM | UACC-62 > 100 µM | T47D > 100 µM | HOP-92 > 100 µM | IGROV-1 > 100 µM | UACC-257 > 100 µM | SK-MEL-28 > 100 µM | CAKI-1 > 100 µM | HT-29 > 100 µM | OVCAR-8 > 100 µM | HCT-116 > 100 µM

C#CC(O)/C=C/C(O)CCCC(O)CC#CC(O)C#CCCCCC(O)/C=C/CCCCCC(=O)CCCCCCCCCCCCCC(O)C(O)C#CC(=O)O (stereo not given)
inactive: NCI-H226 > 25 µM | SK-OV-3 > 25 µM | SF-295 > 25 µM | NCI-H522 4.88 µM | SK-MEL-2 > 25 µM | A498 > 25 µM | MDA-MB-435 > 25 µM | COLO 205 > 25 µM | SF-268 > 25 µM | NCI/ADR-RES > 25 µM | UACC-62 > 25 µM | T47D > 25 µM | HOP-92 > 25 µM | IGROV-1 4.13 µM | UACC-257 > 25 µM | SK-MEL-28 > 25 µM | CAKI-1 > 25 µM | HT-29 > 25 µM | OVCAR-8 > 25 µM | HCT-116 > 25 µM
